This is an account of results in patent US9902702B2, “Spirocycloheptanes as inhibitors of rock” (BRISTOL-MYERS SQUIBB COMPANY, priority 2014, dated 2018).

The assay has as its target ROCK2 (Homo sapiens, UniProt O75116). Kind of assay: ROCK assay: phosphorylation of FITC peptide substrate, LABCHIP 3000 mobility shift. It is filed as biochemical. To be noted: 5 μM ATP, 1.5 μM peptide substrate; read-out: ROCK2 Activity (ROCK IC50 range). The essentials:
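IC50 values come from curve-fitting percent kinase inhibition across a compound dilution series. The reaction is started with Rho kinase variant in HEPES pH 7.5 buffer with MgCl2, Brij-35 and DTT, with 5 μM ATP, 1.5 μM FITC-labelled peptide and under 2% DMSO. After EDTA quench, product and substrate are separated by microfluidic mobility shift.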

Chain of ROCK2 (O75116 whole entry, species assumed): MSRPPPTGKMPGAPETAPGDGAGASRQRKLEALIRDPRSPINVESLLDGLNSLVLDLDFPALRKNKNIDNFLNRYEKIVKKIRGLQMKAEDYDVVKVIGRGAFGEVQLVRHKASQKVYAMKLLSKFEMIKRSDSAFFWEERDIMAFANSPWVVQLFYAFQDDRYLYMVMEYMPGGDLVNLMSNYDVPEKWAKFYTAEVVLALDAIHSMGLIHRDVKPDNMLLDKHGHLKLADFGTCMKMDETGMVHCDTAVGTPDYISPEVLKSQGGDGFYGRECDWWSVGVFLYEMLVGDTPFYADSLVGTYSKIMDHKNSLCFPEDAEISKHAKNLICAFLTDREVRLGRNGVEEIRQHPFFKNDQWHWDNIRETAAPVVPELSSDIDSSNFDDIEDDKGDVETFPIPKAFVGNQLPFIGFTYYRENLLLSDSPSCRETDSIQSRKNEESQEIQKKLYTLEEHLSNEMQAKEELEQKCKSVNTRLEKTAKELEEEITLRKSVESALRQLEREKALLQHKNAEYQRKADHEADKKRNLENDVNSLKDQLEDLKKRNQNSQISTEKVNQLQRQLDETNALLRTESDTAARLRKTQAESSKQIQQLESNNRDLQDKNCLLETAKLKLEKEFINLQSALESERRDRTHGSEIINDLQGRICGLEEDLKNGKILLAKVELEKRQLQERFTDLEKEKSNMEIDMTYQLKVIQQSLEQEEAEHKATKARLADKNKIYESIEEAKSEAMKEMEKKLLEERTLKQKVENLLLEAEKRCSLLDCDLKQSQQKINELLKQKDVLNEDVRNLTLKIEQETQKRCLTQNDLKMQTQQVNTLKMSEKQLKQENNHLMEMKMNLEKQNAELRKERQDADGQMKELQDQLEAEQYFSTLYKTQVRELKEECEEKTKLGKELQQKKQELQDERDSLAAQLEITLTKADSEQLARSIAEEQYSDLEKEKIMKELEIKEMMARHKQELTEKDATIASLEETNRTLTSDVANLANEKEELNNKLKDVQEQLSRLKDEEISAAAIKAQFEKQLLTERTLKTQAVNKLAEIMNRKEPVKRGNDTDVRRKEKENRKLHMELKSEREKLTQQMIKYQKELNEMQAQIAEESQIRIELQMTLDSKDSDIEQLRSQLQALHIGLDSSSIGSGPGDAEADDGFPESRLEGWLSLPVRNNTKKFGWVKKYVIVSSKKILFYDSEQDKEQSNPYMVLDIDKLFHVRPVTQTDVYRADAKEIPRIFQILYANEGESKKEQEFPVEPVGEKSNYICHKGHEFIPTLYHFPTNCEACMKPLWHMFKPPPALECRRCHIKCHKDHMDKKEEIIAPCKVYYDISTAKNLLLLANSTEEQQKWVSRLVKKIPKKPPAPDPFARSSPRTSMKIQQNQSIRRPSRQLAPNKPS

`O=C(NC1CC2(C1)CC(c1n[nH]c(=O)c3ccccc13)C2)c1cnn2cc(COCC3CCOCC3)ccc12` [Example 211, N-((aR)-6-(4-oxo-3,4-dihydrophthalazin-1-yl)spiro[3.3]heptan-2-yl)-6-(((tetrahydro-2H-pyran-4-yl)methoxy)methyl)pyrazolo[1,5-a]pyridine-3-carboxamide]: the IC50 (commonly the concentration that gives 50% inhibition) was 2.01 to 5 nM.

On to `[H][C@]1(c2n[nH]c(=O)c3ccccc32)C[C@]2(C[C@@H](NC(=O)c3cnn4cc(COCC=C)ccc34)C2)C1` (stereo partly drawn) [Example 212, 6-((allyloxy)methyl)-N-((aR)-6-(4-oxo-3,4-dihydrophthalazin-1-yl)spiro[3.3]heptan-2-yl)pyrazolo[1,5-a]pyridine-3-carboxamide], for which the IC50 lay in the range of 0.2 to 2 nM.

Take `O=C(N[C@H]1CC2(C1)C[C@H](c1n[nH]c(=O)c3ccccc31)C2)c1cnn2cc(CO)ccc12` (stereo partly drawn) [Example 213, 6-(hydroxymethyl)-N-((aR)-6-(4-oxo-3,4-dihydrophthalazin-1-yl)spiro[3.3]heptan-2-yl)pyrazolo[1,5-a]pyridine-3-carboxamide]: the IC50 was 5.1 to 15 nM.

Take `CC(=O)c1ccc2c(C(=O)N[C@H]3CC4(C3)C[C@H](c3n[nH]c(=O)c5ccccc53)C4)cnn2c1` (stereo partly drawn) [Example 214, 6-acetyl-N-((aR)-6-(4-oxo-3,4-dihydrophthalazin-1-yl)spiro[3.3]heptan-2-yl)pyrazolo[1,5-a]pyridine-3-carboxamide]: the 50% inhibitory concentration (IC50) is 2.01 to 5 nM.

For `CC(C)(O)c1ccc2c(C(=O)N[C@H]3CC4(C3)C[C@H](c3n[nH]c(=O)c5ccccc53)C4)cnn2c1` (stereo partly drawn) [Example 215, 6-(2-hydroxypropan-2-yl)-N-((aR)-6-(4-oxo-3,4-dihydrophthalazin-1-yl)spiro[3.3]heptan-2-yl)pyrazolo[1,5-a]pyridine-3-carboxamide], the IC50 was 5.1 to 15 nM.

Take `Cc1c(-c2ccc3c(C(=O)N[C@H]4CC5(C4)C[C@H](c4n[nH]c(=O)c6ccccc64)C5)cnn3c2)cnn1C` (stereo partly drawn) [Example 216, 6-(1,5-dimethyl-1H-pyrazol-4-yl)-N-((aR)-6-(4-oxo-3,4-dihydrophthalazin-1-yl)spiro[3.3]heptan-2-yl)pyrazolo[1,5-a]pyridine-3-carboxamide]: the IC50 lay within 0.2 to 2 nM.

Regarding `O=C(NC1CC2(C1)CC(c1n[nH]c(=O)c3ccccc13)C2)c1cnn2cc(-c3cnn(C4CC4)c3)ccc12` [Example 217, 6-(1-cyclopropyl-1H-pyrazol-4-yl)-N-((aR)-6-(4-oxo-3,4-dihydrophthalazin-1-yl)spiro[3.3]heptan-2-yl)pyrazolo[1,5-a]pyridine-3-carboxamide], the concentration for half-maximal inhibition (IC50) is 0.2 to 2 nM.

Regarding `O=C(NC1CC2(C1)CC(c1n[nH]c(=O)c3ccccc13)C2)c1cnn2cc(-c3cnn(CC4CC4)c3)ccc12` [Example 218, 6-(1-(cyclopropylmethyl)-1H-pyrazol-4-yl)-N-((aR)-6-(4-oxo-3,4-dihydrophthalazin-1-yl)spiro[3.3]heptan-2-yl)pyrazolo[1,5-a]pyridine-3-carboxamide], the concentration for half-maximal inhibition (IC50) lay in the range of 0.2 to 2 nM.

With `[2H]C([2H])([2H])n1cc(-c2ccc3c(C(=O)NC4CC5(C4)CC(c4n[nH]c(=O)c6ccccc46)C5)cnn3c2)cn1` (centres unmarked) [Example 219], the IC50 lay within 0.2 to 2 nM.

Regarding `CC(C)n1cc(-c2ccc3c(C(=O)NC4CC5(C4)CC(c4n[nH]c(=O)c6ccccc46)C5)cnn3c2)cn1` [Example 220, 6-(1-isopropyl-1H-pyrazol-4-yl)-N-((aR)-6-(4-oxo-3,4-dihydrophthalazin-1-yl)spiro[3.3]heptan-2-yl)pyrazolo[1,5-a]pyridine-3-carboxamide], the half-inhibitory concentration (IC50) was 0.2 to 2 nM.

As to `Cc1nn(C)c(C)c1-c1ccc2c(C(=O)NC3CC4(C3)CC(c3n[nH]c(=O)c5ccccc35)C4)cnn2c1` [Example 221, N-((aR)-6-(4-oxo-3,4-dihydrophthalazin-1-yl)spiro[3.3]heptan-2-yl)-6-(1,3,5-trimethyl-1H-pyrazol-4-yl)pyrazolo[1,5-a]pyridine-3-carboxamide], the IC50 was in the range of 0.2 to 2 nM.
